Data set [1] concerns PKB Ser473 phosphorylation in Rat1-myr-HA-p110 alpha cells. Description: Reverse protein array, PKB Ser473 phosphorylation in Rat1-myr-HA-p110 alpha cells. It is filed as cell-based. As to conditions: Rattus norvegicus, 0.5 h, 30 minutes compound incubation, read-out: p-PKB/IC50_alpha.
Data set [2] is described as follows: Parallel Artificial Membrane Permeability Assay (PAMPA) at pH 6.8. The class given is physicochemical. An outline of the steps:
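Reported as log Pe, membrane permeability was determined by parallel artificial membrane assay at pH 6.8 per Wohnsland–Faller.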

Data set [3] can be described thus: High-throughput equilibrium solubility at pH 6.8. It is filed as physicochemical. As to conditions: pH 6.8, aqueous buffer, thermodynamic from solid; read-out: HT-Eq Sol/pH 6.8. An outline of the steps:
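Following the procedure of Zhou et al. (2007), compound solubility was determined at pH 6.8.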

Each structure is given as a SMILES string. In brackets after ≈: the same amount, converted by molar mass.

The text below walks through data of US20100311714A1, “1H-IMIDAZO[4,5-c]QUINOLINONE COMPOUNDS” (priority 2009, published 2010).

On to `COc1ncccc1-n1c(=O)n(C)c2cnc3ccc(-c4cnc5c(ccn5C)c4)cc3c21` [Example 1.7, 1-(2-Methoxy-pyridin-3-yl)-3-methyl-8-(1-methyl-1H-pyrrolo[2,3-b]pyridin-5-yl)-1,3-dihydro-imidazo[4,5-c]quinolin-2-one], for which the IC50 in data set [1] was found to be 5.44 nM. For the same compound, in data set [2], the “HT-perm/logPe pH6.8” value is −3.8. In addition, in data set [3], the solubility thermodynamic worked out at 3 µg/mL (≈ 6.87 µM).

Consider `COc1ncccc1-n1c(=O)n(C)c2cnc3ccc(-c4ccc(F)nc4)cc3c21` [Example 1.8, 8-(6-Fluoro-pyridin-3-yl)-1-(2-methoxy-pyridin-3-yl)-3-methyl-1,3-dihydro-imidazo[4,5-c]quinolin-2-one], for which the IC50 in data set [1] is 97.6 nM. In addition, in data set [2], the “HT-perm/logPe pH6.8” value is −3.7. Moreover, the solubility thermodynamic in data set [3] amounted to 4 µg/mL (≈ 9.97 µM).

Take `COc1ncccc1-n1c(=O)n(C)c2cnc3ccc(-c4cnc(N(C)C)nc4)cc3c21` [Example 1.9, 8-(2-Dimethylamino-pyrimidin-5-yl)-1-(2-methoxy-pyridin-3-yl)-3-methyl-1,3-dihydro-imidazo[4,5-c]quinolin-2-one]: the IC50 in data set [1] came out at 57.6 nM. Moreover, the “HT-perm/logPe pH6.8” value in data set [2] is −3.3. The solubility thermodynamic in data set [3] was found to be 3 µg/mL (≈ 7.02 µM).

With `CCOc1ccc(-c2ccc3ncc4c(c3c2)n(-c2cccnc2C)c(=O)n4C)cn1` [Example 2.1, 8-(6-Ethoxy-pyridin-3-yl)-3-methyl-1-(2-methyl-pyridin-3-yl)-1,3-dihydro-imidazo[4,5-c]quinolin-2-one], in data set [1], the IC50 came out at 6.31 nM. For the same compound, in data set [2], the “HT-perm/logPe pH6.8” value is given as −3.7. The solubility thermodynamic in data set [3] was 3 µg/mL (≈ 7.29 µM).

Regarding `CNc1ncc(-c2ccc3ncc4c(c3c2)n(-c2cccnc2C)c(=O)n4C)cn1` [Example 2.2, 3-Methyl-8-(2-methylamino-pyrimidin-5-yl)-1-(2-methyl-pyridin-3-yl)-1,3-dihydro-imidazo[4,5-c]quinolin-2-one], the IC50 in data set [1] is 15.9 nM. Besides, the “HT-perm/logPe pH6.8” value in data set [2] is reported as −4.7. The solubility thermodynamic in data set [3] came out at 14 µg/mL (≈ 35.2 µM).

For `CCNc1cc(-c2ccc3ncc4c(c3c2)n(-c2ccc(F)nc2C)c(=O)n4C)cnc1CO` [Example 7.9, 8-(5-Ethylamino-6-hydroxymethyl-pyridin-3-yl)-1-(6-fluoro-2-methyl-pyridin-3-yl)-3-methyl-1,3-dihydro-imidazo[4,5-c]quinolin-2-one], in data set [1], the IC50 is less than 4.57 nM. For the same compound, the “HT-Perm logPe pH6.8” value in data set [2] is recorded as −5.2. In data set [3], the solubility thermodynamic turned out to be 299 µg/mL (≈ 652 µM).

As to `CNc1cc(-c2ccc3ncc4c(c3c2)n(-c2ccc(F)nc2C)c(=O)n4C)cnc1CO` [Example 7.11, 1-(6-Fluoro-2-methyl-pyridin-3-yl)-8-(6-hydroxymethyl-5-methylamino-pyridin-3-yl)-3-methyl-1,3-dihydro-imidazo[4,5-c]quinolin-2-one], the IC50 in data set [1] came out at 12.6 nM. In data set [2], the “HT-Perm logPe pH6.8” value is given as −5.4. Also, in data set [3], the solubility thermodynamic is 207 µg/mL (≈ 466 µM).

On to `CNc1ncc(-c2ccc3ncc4c(c3c2)n(-c2ccc(F)nc2C)c(=O)n4C)cc1F` [Example 7.12, 8-(5-Fluoro-6-methylamino-pyridin-3-yl)-1-(6-fluoro-2-methyl-pyridin-3-yl)-3-methyl-1,3-dihydro-imidazo[4,5-c]quinolin-2-one], for which, in data set [1], the IC50 worked out at 6.4 nM. Further, the “HT-Perm logPe pH6.8” value in data set [2] is −3.7. Further, in data set [3], the solubility thermodynamic was found to be 3 µg/mL (≈ 6.94 µM).

Take `CNc1ncc(-c2ccc3ncc4c(c3c2)n(-c2ccc(F)nc2C)c(=O)n4C)cc1C(F)(F)F` [Example 7.13, 1-(6-Fluoro-2-methyl-pyridin-3-yl)-3-methyl-8-(6-methylamino-5-trifluoromethyl-pyridin-3-yl)-1,3-dihydro-imidazo[4,5-c]quinolin-2-one]: in data set [1], the IC50 is less than 4.57 nM. Further, the “HT-Perm logPe pH6.8” value in data set [2] is on record as −3.7. Further, the solubility thermodynamic in data set [3] was found to be 20 µg/mL (≈ 41.5 µM).

Turning to `CNC(=O)c1cc(-c2ccc3ncc4c(c3c2)n(-c2ccc(F)nc2C)c(=O)n4C)cnc1N` [Example 7.14, 2-Amino-5-[1-(6-fluoro-2-methyl-pyridin-3-yl)-3-methyl-2-oxo-2,3-dihydro-1H-imidazo[4,5-c]quinolin-8-yl]-N-methyl-nicotinamide], in data set [1], the IC50 amounted to 15.2 nM. Also, in data set [2], the “HT-Perm logPe pH6.8” value was −5.9. The solubility thermodynamic in data set [3] came to 3 µg/mL (≈ 6.56 µM).

Take `CCOCc1cc(-c2ccc3ncc4c(c3c2)n(-c2ccc(F)nc2C)c(=O)n4C)cnc1N` [Example 7.15, 8-(6-Amino-5-ethoxymethyl-pyridin-3-yl)-1-(6-fluoro-2-methyl-pyridin-3-yl)-3-methyl-1,3-dihydro-imidazo[4,5-c]quinolin-2-one]: the IC50 in data set [1] came to 20.1 nM. Also, the “HT-Perm logPe pH6.8” value in data set [2] was −4. Further, the solubility thermodynamic in data set [3] turned out to be 67.5 µg/mL (≈ 147 µM).

On to `Cc1nc(F)ccc1-n1c(=O)n(C)c2cnc3ccc(-c4cncc(N)c4)cc3c21` [Example 7.16, 8-(5-Amino-pyridin-3-yl)-1-(6-fluoro-2-methyl-pyridin-3-yl)-3-methyl-1,3-dihydro-imidazo[4,5-c]quinolin-2-one], for which, in data set [1], the IC50 is 30.3 nM. Besides, the “HT-Perm logPe pH6.8” value in data set [2] is given as −6. Further, the solubility thermodynamic in data set [3] amounted to 187 µg/mL (≈ 467 µM).

`Cc1nc(F)ccc1-n1c(=O)n(C)c2cnc3ccc(-c4cnc(N)c(CO)c4)cc3c21` [Example 7.17, 8-(6-Amino-5-hydroxymethyl-pyridin-3-yl)-1-(6-fluoro-2-methyl-pyridin-3-yl)-3-methyl-1,3-dihydro-imidazo[4,5-c]quinolin-2-one]: the IC50 in data set [1] is 31.1 nM. In addition, the solubility thermodynamic in data set [3] was greater than 430 µg/mL.

Regarding `COc1ccc(-n2c(=O)n(C)c3cnc4ccc(-c5ccc6nccn6c5)cc4c32)c(OC)n1` [Example 8.10, 1-(2,6-Dimethoxy-pyridin-3-yl)-8-imidazo[1,2-a]pyridin-6-yl-3-methyl-1,3-dihydro-imidazo[4,5-c]quinolin-2-one], in data set [1], the IC50 is 20.5 nM. The “HT-Perm logPe pH6.8” value in data set [2] is on record as −3.9. The solubility thermodynamic in data set [3] was 47 µg/mL (≈ 104 µM).

With `COCc1ncc(-c2ccc3ncc4c(c3c2)n(-c2ccc(OC)nc2OC)c(=O)n4C)cc1OC` [Example 8.12, 1-(2,6-Dimethoxy-pyridin-3-yl)-8-(5-methoxy-6-methoxymethyl-pyridin-3-yl)-3-methyl-1,3-dihydro-imidazo[4,5-c]quinolin-2-one], in data set [1], the IC50 worked out at 27.7 nM. The “HT-Perm logPe pH6.8” value in data set [2] is on record as −4. The solubility thermodynamic in data set [3] was determined as 13 µg/mL (≈ 26.7 µM).

For `COCCN(C)c1ccc(-n2c(=O)n(C)c3cnc4ccc(-c5cnc(N(C)C)nc5)cc4c32)c(C)n1` [Example 15.5, 8-(2-Dimethylamino-pyrimidin-5-yl)-1-{6-[(2-methoxy-ethyl)-methyl-amino]-2-methyl-pyridin-3-yl}-3-methyl-1,3-dihydro-imidazo[4,5-c]quinolin-2-one], the IC50 in data set [1] is 40.7 nM. In data set [2], the “HT-Perm logPe pH6.8” value is given as −3.7.

`CCOc1ccc(-c2ccc3ncc4c(c3c2)n(-c2cncc(C)c2)c(=O)n4C)cn1` [Example 17.1, 8-(6-Ethoxy-pyridin-3-yl)-3-methyl-1-(5-methyl-pyridin-3-yl)-1,3-dihydro-imidazo[4,5-c]quinolin-2-one]: in data set [1], the IC50 stood at 53.4 nM. Further, in data set [2], the “HT-Perm logPe pH6.8” value is listed as −4.5.

Take `CNc1ncc(-c2ccc3ncc4c(c3c2)n(-c2ccc(N(C)C)nc2C)c(=O)n4C)cn1` [Example 19.1, 1-(6-Dimethylamino-2-methyl-pyridin-3-yl)-3-methyl-8-(2-methylamino-pyrimidin-5-yl)-1,3-dihydro-imidazo[4,5-c]quinolin-2-one]: in data set [2], the “HT-Perm logPe pH6.8” value is reported as −3.9. Also, the solubility thermodynamic in data set [3] was determined as 7 µg/mL (≈ 15.9 µM).

With `Cc1nc(N2CC(F)(F)C2)ccc1-n1c(=O)n(C)c2cnc3ccc(-c4cncc(C(C)(C)O)c4)cc3c21` [Example 24.2, 1-[6-(3,3-Difluoro-azetidin-1-yl)-2-methyl-pyridin-3-yl]-8-[5-(1-hydroxy-1-methyl-ethyl)-pyridin-3-yl]-3-methyl-1,3-dihydro-imidazo[4,5-c]quinolin-2-one], the IC50 in data set [1] came to 17.5 nM. For the same compound, the “HT-Perm logPe pH6.8” value in data set [2] is listed as −5.

As to `CNc1ccc(-c2ccc3ncc4c(c3c2)n(-c2ccc(N3CCCC3)nc2C)c(=O)n4C)cn1` [Example 25.1, 3-Methyl-8-(6-methylamino-pyridin-3-yl)-1-(2-methyl-6-pyrrolidin-1-yl-pyridin-3-yl)-1,3-dihydro-imidazo[4,5-c]quinolin-2-one], the IC50 in data set [1] amounted to 11.5 nM. The “HT-Perm logPe pH6.8” value in data set [2] is on record as −3.9.

Regarding `Cc1nc(N2CCC(O)C2)ccc1-n1c(=O)n(C)c2cnc3ccc(-c4cncc(OC(C)C)c4)cc3c21` (stereo not drawn) [Example 27.1, 1-[6-(3-Hydroxy-pyrrolidin-1-yl)-2-methyl-pyridin-3-yl]-8-(5-isopropoxy-pyridin-3-yl)-3-methyl-1,3-dihydro-imidazo[4,5-c]quinolin-2-one], in data set [1], the IC50 amounted to 41.1 nM. For the same compound, in data set [2], the “HT-Perm logPe pH6.8” value was −4.9.

In the case of `CNc1cc(-c2ccc3ncc4c(c3c2)n(-c2ccc(C(F)(F)F)nc2C)c(=O)n4C)cnc1CO` [Example 33.2, 8-(6-Hydroxymethyl-5-methylamino-pyridin-3-yl)-3-methyl-1-(2-methyl-6-trifluoromethyl-pyridin-3-yl)-1,3-dihydro-imidazo[4,5-c]quinolin-2-one], the IC50 in data set [1] worked out at 5.2 nM. Besides, the “HT-Perm logPe pH6.8” value in data set [2] is given as −4.8.

`Cc1nc(N2CC(F)(F)C(F)(F)C2)ccc1-n1c(=O)n(C)c2cnc3ccc(-c4cncc(C(C)(C)O)c4)cc3c21` [Example 35.1, 8-[5-(1-Hydroxy-1-methyl-ethyl)-pyridin-3-yl]-3-methyl-1-[2-methyl-6-(3,3,4,4-tetrafluoro-pyrrolidin-1-yl)-pyridin-3-yl]-1,3-dihydro-imidazo[4,5-c]quinolin-2-one]: the IC50 in data set [1] stood at 14.6 nM. In data set [2], the “HT-Perm logPe pH6.8” value is on record as −4.3.
